Results taken from the CATMoS acute toxicity set (Mansouri et al. 2021).

Experiment: GHS categories as the set defines them, by LD50: 1 up to 5, 2 up to 50, 3 up to 300, 4 up to 2000, 5 above 2000 mg/kg
Details: rat; in vivo; po

SMILES	GHS category
CCC(=O)OC1CC(=O)OC(C)CC=CC=CC(OC(C)=O)C(C)CC(CC=O)C(OC2OC(C)C(OC3CC(C)(OC(C)=O)C(OC(=O)CC)C(C)O3)C(N(C)C)C2O)C1OC (stereo unspecified)	5
CO[Si](CC(C)C)(OC)OC	5
CCOC(=O)C1=C(C)C=CCC1(C)C	5
CCC(c1cccc(O)c1)C(CC)c1cccc(O)c1 (stereo unspecified)	5
O=C1CCCCCN1SSN1CCCCCC1=O	5
CC(=O)N(C)C(=O)Oc1cccc2c1OC(C)(C(C)(C)C)O2 (stereo unspecified)	4
CCC=CCCCCCCCCCCCCCCOCC	5
CC(C)=CC/C(C)=C/COC(=O)c1ccccc1	5
C/C=C(\C)C(=O)OCC/C=C\CC	5
COc1cc(O)c2c(=O)oc(CO)cc2c1	4
COc1n[nH]c(=O)n1C	5
CO[Si](C)(OC)OC	5
CC(C)=CCOC1=C(C(=O)Nc2ccccn2)N(C)S(=O)(=O)c2cc(Cl)sc21	2
CC(=O)OCC(=O)[C@@]12OC3(CCCC3)O[C@@H]1C[C@H]1[C@@H]3CCC4=CC(=O)C=C[C@]4(C)[C@@]3(F)[C@@H](O)C[C@@]12C	5
CCCCOC(=O)c1ccc(-n2nc(OC)c3ccccc32)cc1	5
C[C@]12C[C@@H](O)[C@H]3[C@@H](CCC4=CC(=O)CC[C@@H]43)[C@@H]1CCC2=O	4
O=C(O)[C@H](O)[C@H](O)[C@@H](O)[C@H](O)[C@H](O)CO	5
NCCS(=O)(=O)O	5
CCCCCC(=Cc1ccccc1)C(OC)OC	5
CC(C)C1(C)N=C(c2ncccc2C(=O)O)NC1=O (stereo unspecified)	5
O=C1NC(=O)C(c2ccc(O)cc2)(c2ccc(O)c(Cl)c2)N1 (stereo unspecified)	5
CCOC[C@H]1CO[C@@](Cn2cncn2)(c2cc3ccccc3o2)O1	4
CC(=C(CCS(C)=O)SSC(CCS(C)=O)=C(C)N(C=O)Cc1cnc(C)nc1N)N(C=O)Cc1cnc(C)nc1N (stereo unspecified)	4

SMILES	GHS category
CCN(C)CCC(C#N)(CC=C(C)C)c1cccc2ccccc12 (stereo unspecified)	4
CCCCCCCCOC(=O)C(C)C	5
CCOC(=O)COc1nn(-c2cccc(C(F)(F)F)c2)c2ncccc12	4
CC(C)(O)C(=O)c1ccc(Cc2ccc(C(=O)C(C)(C)O)cc2)cc1	5
COc1cccc(N(C)C(=S)Oc2cccc(C(C)(C)C)c2)n1	5
CCC(C)C(=O)OCCc1ccccc1 (stereo unspecified)	5
Cc1cccc2ncc(C(=O)NC(C)C)c(=O)n12	3
Clc1ccc(Cl)nn1	3
CC(=O)NCCCOc1ccc(C(=O)N2CCC(N3C(=O)CCc4ccccc43)CC2)cc1	5
Cc1ccc(Nc2nc(Nc3ccc(C)cc3)c(N=Nc3ccccc3C(F)(F)F)c(C)c2C#N)cc1	5
C=C(C)CCO	5
O=C1CCCCCN1C(=O)Nc1ccc(Cc2ccc(NC(=O)N3CCCCCC3=O)cc2)cc1	5
CCCCC(=O)N(Cc1ccc(-c2ccccc2-c2nn[nH]n2)cc1)[C@H](C(=O)OCc1ccccc1)C(C)C	4
CCC(C)Cl (stereo unspecified)	5
OCc1cncs1	5
CC(=O)OCC(C)=CCCC1(C)C2CC3C(C2)C31C (stereo unspecified)	5
CCOC(=O)c1cc(Br)ccc1OC(N)=O	5
CC1=NN(c2cccc(S(=O)(=O)O)c2)C(=O)C1	5
CCCCCCCCCCCOC(=O)c1ccccc1C(=O)OCCCCCCCCCCC	5
CC(=O)OC[C@H]1O[C@@](COC(C)=O)(O[C@H]2O[C@H](COC(C)=O)[C@@H](OC(C)=O)[C@H](OC(C)=O)[C@H]2OC(C)=O)[C@@H](OC(C)=O)[C@@H]1OC(C)=O	5
CC(C)C1OCCN1CCOC(=O)NCCCCCCNC(=O)OCCN1CCOC1C(C)C (stereo unspecified)	5
CC(C)C1C=C2CCC3C(C)(CO)CCCC3(C)C2CC1 (stereo unspecified)	5
CCOC(=O)[C@H](CCc1ccccc1)N[C@H]1CCCN2CCC[C@@H](C(=O)O)N2C1=O	5
